Test results: patent US20040198795A1, “Substituted imidazoliums and methods of use therefor” (priority 1996, published 2004)
Blank lines part the entries; values can stand above or below the compound they belong to.

How the values were obtained:
[1] = molecular target: T1, AGE-BSA previously crosslinked to the collagen (Bos taurus, UniProt P02769); experiment: Sandwich enzyme immunoassay for breaking of AGE-BSA cross-linked to collagen; assay type: biochemical; conditions: 10 mM, 16 hours, 37° C.; for % breaking, Pr AbαAGE: primary antibody anti-AGE-RNase; for % breaking, PrAbαBSA: primary antibody anti-BSA
T1 construct: Bovine Serum Albumin (Type V), (BSA) Calbiochem; purchased Calbiochem (BSA, Type V); Collaborative Biomedical Products (Biocoat collagen plates)
Procedure: In order to ascertain the ability of the compounds of the instant invention to “break” or reverse already formed advanced glycosylation endproducts, a novel sandwich enzyme immunoassay was developed which detects breaking of AGE (Advanced glycosylation endproduct) moieties from AGE-crosslinked protein. […] Following an incubation period of 16 hours (37° C.) cross-link-breaking is detected using an antibody raised against AGE-ribonuclease or with an antibody against BSA. […] Details of the assay are as follows:
1. AGE-BSA stock solutions were prepared as follows. Sodium phosphate buffer (0.4 M) was prepared by dissolving 6 grams of monobasic sodium phosphate in 100 ml of distilled water, 7 grams of dibasic sodium phosphate (0.4 M) in 100 ml of distilled water and adjusting the pH of the dibasic solution to 7.4 with the monobasic solution. Sodium azide (0.02 grams) was added per 100 ml volume to inhibit bacterial growth. The BSA solution was prepared as follows: 400 mg of Type V BSA (bovine serum albumin) was added for each ml of sodium phosphate buffer (above). A 400 mM glucose solution was prepared by dissolving 7.2 grams of dextrose in 100 ml of sodium phosphate buffer (above). The BSA and glucose solutions were mixed 1:1 and incubated at 37° C. for 12 weeks. The pH of the incubation mixture was monitored weekly and adjusted to pH 7.4 if necessary. After 12 weeks, the AGE-BSA solution was dialyzed against PBS for 48 hours with four buffer changes, each at a 1:500 ratio of solution to dialysis buffer.
2. Working solutions for crosslinking and breaking studies were prepared as follows. Test compounds were dissolved in PBS and the pH was adjusted to pH 7.4 if necessary. […] The concentration of AGE-BSA necessary to achieve the optimum sensitivity was determined by initial titration of each lot of AGE-BSA.
1. Biocoat plates were blocked with 300 μl of “Superbloc”. Plates were blocked for one hour at room temperature and were washed with PBS-Tween three times with the Dynatech platewasher before addition of test reagents.
2. Each experiment was set up in the following manner. The first three wells of the Biocoat plate were used for the reagent blank. Fifty microliters of solutions AGE-BSA were added to test wells in triplicate and only PBS in blank wells.

[2] = test system: AGE receptor on macrophages (RAW 264.7 cells); experiment: Radioligand binding assay for upregulation of the AGE receptor on macrophages; assay type: cell-based; conditions: iodinated AGE-BSA
Procedure: To study the effects of test compounds on the upregulation of the AGE receptor on macrophages, the following radioligand binding assay was utilized.
2. One day prior to assay, 1.0 ml of cells are plated per well onto 24 well culture plates at a concentration of 0.75×10^6 cells per ml.
4. […] One ml of the ligand mixture is added to the appropriate wells and the plates are place at 4° C. on a rocking platform for four hours.
6. To each well is added 1.0 ml of 1.0 N sodium hydroxide for fifteen to thirty minutes. The disrupted cells are removed using a cotton tipped swab. After placing the swab in the appropriate tube for gamma counting, the medium remaining in each well is collected and added to the tubes containing the swabs. Each well is washed twice with 0.5 ml of 1.0 N sodium hydroxide which is then added to the appropriate tubes.
7. The samples are counted in an LKB gamma counter and the final numbers are used to determine the percent specific binding as well as the Ka, the Kd and the number of receptors per cell.

[3] = molecular target: cross-linking of glycated bovine serum albumin (AGE-BSA) to the rat tail tendon collagen (Bos taurus, UniProt P02769); experiment: Inhibition of cross-linking of AGE-BSA to rat tail tendon collagen coated plate (ELISA); conditions: for % Inh.: at 10 mM, PBS pH 7.4, 37° C., 4 hours
Procedure: The following method was used to evaluate the ability of the compounds of the present invention to inhibit the cross-linking of glycated bovine serum albumin (AGE-BSA) to the rat tail tendon collagen coated 96-well plate.
The glycated BSA was then extensively dialyzed against phosphate buffer solution (PBS) for 48 hours with additional 5 times buffer exchanges. […] The blocking solution was removed from the wells by washing the plate twice with PAS-Tween 20 solution (0.05% Tween 20) using a NUNC-multiprobe or Dynatech ELISA-plate washer. […] The unbrowned BSA in PBS buffer with or without testing compound were added to the separate wells as the blanks. The uncross-linked AGE-BSA was then removed by washing the wells three times with PBS-Tween buffer. The cross-linked AGE-BSA to the tail tendon coated plate was then quantitated by the polyclonal antibody raised against AGE-RNase. After a one-hour incubation period, AGE antibody was removed by washing 4 times with PBS-Tween.
The bound AGE antibody was then detected with the addition of horseradish peroxidase-conjugated secondary antibody, e.g., goat anti-rabbit immunoglobulin and incubation for 30 minutes. […] The reaction was allowed for an additional 15 minutes and the absorbance was read at 410 nm in a Dynatech plate reader.
The % inhibition of each test compound was calculated as follows.

[4] = test system: aortic wall protein cross-linking; conditions: diabetic rats; cited from earlier work
[5] = test system: red blood cells; conditions: in vivo; cited from earlier work
[6] = test system: glomerular basement membrane thickness; conditions: streptozotocin-diabetic rat model; cited from earlier work
[7] = test system: immunoglobulin trapping in the kidney; conditions: Brownlee et al. 1986; cited from earlier work
[8] = test system: fixed protein (gelatin, i.e., collagen) surface; experiment: Surface browning experiment on gelatin/paper disks with glucose-6-phosphate; conditions: Peridex at final 0.04% chlorhexidine, 100 Mm glucose-6-phosphate, one week at 50° C., pH 7.4
Procedure: To further study the ability of inhibitors of nonenzymatic browning to prevent the discoloration of protein on a surface, such as that which occurs on the tooth surface, the following surface browning experiment is performed. As a substitute for a pellicle-covered tooth surface, unexposed and developed photographic paper is used to provide a fixed protein (gelatin, i.e., collagen) surface on a paper backing. Five millimeter circles are punched and immersed for one week at 50° C. in a solution of 100 Mm glucose-6-phosphate in a 0.5 M phosphate buffer, pH 7.4, containing 3 Mm sodium azide. Glucose-6-phosphate is a sugar capable of participating in nonenzymatic browning at a more rapid rate than glucose. In addition to the glucose-6-phosphate, chlorhexidine and/or a compound of Formula I are included. After incubation, the gelatin/paper disks are rinsed with water, observed for brown color, and photographed.

[9] = Nordbo 1979; cited from earlier work

T1 sequence (P02769 25-607): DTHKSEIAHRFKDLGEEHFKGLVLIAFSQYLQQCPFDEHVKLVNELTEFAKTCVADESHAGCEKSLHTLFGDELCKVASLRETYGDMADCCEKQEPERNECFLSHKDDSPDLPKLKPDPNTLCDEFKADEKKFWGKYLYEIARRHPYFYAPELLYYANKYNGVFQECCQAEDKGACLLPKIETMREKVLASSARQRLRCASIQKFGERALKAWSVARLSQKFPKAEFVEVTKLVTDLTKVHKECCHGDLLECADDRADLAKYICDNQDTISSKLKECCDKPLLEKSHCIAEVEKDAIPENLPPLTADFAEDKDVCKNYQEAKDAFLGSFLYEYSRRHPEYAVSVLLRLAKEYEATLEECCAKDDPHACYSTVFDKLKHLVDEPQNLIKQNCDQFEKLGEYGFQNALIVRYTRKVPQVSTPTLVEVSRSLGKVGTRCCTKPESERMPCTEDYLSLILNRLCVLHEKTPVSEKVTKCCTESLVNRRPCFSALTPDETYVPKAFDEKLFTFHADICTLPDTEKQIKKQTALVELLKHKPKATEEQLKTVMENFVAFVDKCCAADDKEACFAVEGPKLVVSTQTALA
Sequence of cross-linking of glycated bovine serum albumin (AGE-BSA) to the rat tail tendon collagen (P02769 25-607): as above

melting point: 183 to 185 °C
Compound: Cn1cc[n+](CC(N)=O)c1.[Br-]

melting point: 108 to 110 °C
Compound: Cn1cc[n+](CC(=O)c2ccccc2)c1.[Br-]

Compound: 1-methyl-3-[2-(3′-methoxyphenyl)-2-oxoethyl]-imidazolium bromide
% breaking, Pr AbαAGE [1]: 20%
% breaking, PrAbαBSA [1]: 24%
Specific Binding Expressed as % Control, Day 1 [2]: 125%
Specific Binding Expressed as % Control, Day 2 [2]: 132%
Specific Binding Expressed as % Control, Day 3 [2]: 143%
Specific Binding Expressed as % Control, Day 4 [2]: 360%

Compound: CCOC(=O)CCCCCn1cc[n+](CC(=O)c2cccc(OC)c2)c1.[Br-] [1-(ethoxycarbonylpentyl)-3-[2-(3′-methoxyphenyl)-2-oxoethyl]-imidazolium bromide]
% Inh. [3]: 40%

Compound: CCN(CC)c1ccc(C(=O)Cn2cc[n+](C)c2)cc1 [1-Methyl-3-[2-(4′-diethylaminophenyl)-2-oxo-ethyl]-imidazolium bromide]
% breaking, Pr AbαAGE [1]: 32%
% breaking, PrAbαBSA [1]: 28%
IC50 ([3]; rat, 4 h, pH 7.4): 1750 µM

Compound: Cn1cc[n+](CC(=O)c2ccc(Br)cc2)c1.[Br-] [1-methyl-3-[2-(4′-bromophenyl)-2-oxoethyl]-imidazolium bromide]
% Inh. [3]: 23%

Compound: COc1ccc(C(=O)C[n+]2ccn(C)c2)cc1.[Br-] [1-methyl-3-[2-(4′-methoxyphenyl)-2-oxoethyl]-imidazolium bromide]
% breaking, Pr AbαAGE [1]: 38%
% breaking, PrAbαBSA [1]: 27%
Specific Binding Expressed as % Control, Day 1 [2]: 185%
Specific Binding Expressed as % Control, Day 2 [2]: 132%
Specific Binding Expressed as % Control, Day 3 [2]: 145%
Specific Binding Expressed as % Control, Day 4 [2]: 423%

Compound: N=C(N)NN [aminoguanidine]
Aortic wall protein cross-linking [4]: diminishes aortic wall protein cross-linking
Diabetes-induced changes in the deformability of red blood cells [5]: prevent it
Increased glomerular basement membrane thickness [6]: prevented
Immunoglobulin trapping in the kidney [7]: reduction of immunoglobulin trapping in the kidney

Compound: [H]/N=C(\N/C(=N/[H])NCCCCCCNC(=N)NC(=N)Nc1ccc(Cl)cc1)Nc1ccc(Cl)cc1 [chlorhexidine]
Brown color of gelatin/paper disks [8]: significant browning
Effect on browning reactions in vitro [9]: catalyze browning reactions

Compound: benzalkonium chloride
Effect on browning reactions in vitro [9]: catalyze browning reactions
